Source: ChEMBL document CHEMBL1152560, “Substituted 2-arylbenzothiazoles as kinase inhibitors: hit-to-lead optimization” (Bioorg Med Chem, 2009)

Assays:
[1] = molecular target: Glycogen synthase kinase-3 alpha (Homo sapiens) (UniProt P49840); assay: Residual activity of GSK3alpha at 1 uM by microplate scintillation counting
[2] = molecular target: Tyrosine-protein kinase HCK (Homo sapiens) (UniProt P08631); assay: Residual activity of HCK at 1 uM by microplate scintillation counting
[3] = molecular target: G protein-coupled receptor kinase 4 (Homo sapiens) (UniProt P32298); assay: Residual activity of GRK4 at 0.1 uM by microplate scintillation counting
[4] = molecular target: G protein-coupled receptor kinase 6 (Homo sapiens) (UniProt P43250); assay: Residual activity of GRK6 at 0.1 uM by microplate scintillation counting
[5] = molecular target: Glycogen synthase kinase-3 beta (Homo sapiens) (UniProt P49841); assay: Residual activity of GSK3-beta at 0.1 uM by microplate scintillation counting
[6] = molecular target: Interleukin-1 receptor-associated kinase 1 (Homo sapiens) (UniProt P51617); assay: Residual activity of IRAKI at 0.1 uM by microplate scintillation counting
[7] = molecular target: Tyrosine-protein kinase Yes (Homo sapiens) (UniProt P07947); assay: Residual activity of YES at 1 uM by microplate scintillation counting
[8] = molecular target: T1, Serine/threonine-protein kinase Chk1 (Homo sapiens) (UniProt O14757); assay: Residual activity of CHK1 at 10 uM by microplate scintillation counting
T1 sequence (whole entry): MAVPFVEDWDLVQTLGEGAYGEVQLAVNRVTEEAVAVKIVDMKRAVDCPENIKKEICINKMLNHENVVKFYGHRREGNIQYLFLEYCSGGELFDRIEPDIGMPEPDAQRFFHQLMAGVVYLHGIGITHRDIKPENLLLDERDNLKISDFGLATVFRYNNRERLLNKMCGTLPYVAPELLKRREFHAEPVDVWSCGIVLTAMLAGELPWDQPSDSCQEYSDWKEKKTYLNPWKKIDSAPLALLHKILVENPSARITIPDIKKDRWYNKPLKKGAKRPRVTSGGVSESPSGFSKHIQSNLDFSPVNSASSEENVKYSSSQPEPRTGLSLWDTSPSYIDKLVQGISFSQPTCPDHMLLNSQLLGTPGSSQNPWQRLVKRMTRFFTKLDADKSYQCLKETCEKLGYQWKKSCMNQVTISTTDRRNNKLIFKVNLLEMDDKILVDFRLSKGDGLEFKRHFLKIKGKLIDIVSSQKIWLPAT

[9] = molecular target: Death-associated protein kinase 1 (Homo sapiens) (UniProt P53355); assay: Residual activity of DAPK1 at 10 uM by microplate scintillation counting
[10] = molecular target: Dual specificity tyrosine-phosphorylation-regulated kinase 1A (Homo sapiens) (UniProt Q13627); assay: Residual activity of DYRK1A at 10 uM by microplate scintillation counting
[11] = molecular target: Ephrin type-A receptor 7 (Homo sapiens) (UniProt Q15375); assay: Residual activity of EPHA7 at 10 uM by microplate scintillation counting
[12] = molecular target: Tyrosine-protein kinase Fyn (Homo sapiens) (UniProt P06241); assay: Residual activity of FYN at 10 uM by microplate scintillation counting
[13] = molecular target: Insulin receptor (Homo sapiens) (UniProt P06213); assay: Residual activity of INSR at 10 uM by microplate scintillation counting
[14] = molecular target: Cyclin-dependent kinase 2/cyclin A (Homo sapiens) (UniProt P24941+P20248+P78396); assay: Residual activity of CDK2/Cyclin A at 10 uM by microplate scintillation counting; format: protein-complex assay
[15] = molecular target: Dual specificity tyrosine-phosphorylation-regulated kinase 1A (Homo sapiens) (UniProt Q13627); assay: Residual activity of DYRK1A at 0.1 uM by microplate scintillation counting
[16] = molecular target: Tyrosine-protein kinase Lyn (Homo sapiens) (UniProt P07948); assay: Residual activity of LYN at 10 uM by microplate scintillation counting
[17] = molecular target: T2, Megakaryocyte-associated tyrosine-protein kinase (Homo sapiens) (UniProt P42679); assay: Residual activity of MATK at 10 uM by microplate scintillation counting
T2 sequence (whole entry): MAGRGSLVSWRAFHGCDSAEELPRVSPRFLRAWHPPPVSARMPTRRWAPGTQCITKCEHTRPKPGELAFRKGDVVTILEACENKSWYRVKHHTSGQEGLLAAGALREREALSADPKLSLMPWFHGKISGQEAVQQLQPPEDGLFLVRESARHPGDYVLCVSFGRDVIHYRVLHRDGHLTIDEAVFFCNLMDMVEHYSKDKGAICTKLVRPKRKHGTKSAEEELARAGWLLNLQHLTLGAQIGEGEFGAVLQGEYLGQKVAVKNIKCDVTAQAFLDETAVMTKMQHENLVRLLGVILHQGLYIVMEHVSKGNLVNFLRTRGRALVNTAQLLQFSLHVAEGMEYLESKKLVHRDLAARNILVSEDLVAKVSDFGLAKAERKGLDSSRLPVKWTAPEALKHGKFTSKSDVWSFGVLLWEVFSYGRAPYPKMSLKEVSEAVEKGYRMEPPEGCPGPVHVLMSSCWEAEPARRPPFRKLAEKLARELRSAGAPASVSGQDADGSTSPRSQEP

[18] = molecular target: Tyrosine-protein kinase BTK (Homo sapiens) (UniProt Q06187); assay: Residual activity of BTK at 1 uM by microplate scintillation counting
[19] = molecular target: Calcium/calmodulin-dependent protein kinase kinase 2 (Homo sapiens) (UniProt Q96RR4); assay: Residual activity of CAMKK2 at 1 uM by microplate scintillation counting
[20] = molecular target: Serine/threonine-protein kinase PAK 1 (Homo sapiens) (UniProt Q13153); assay: Residual activity of PAK1 at 0.1 uM by microplate scintillation counting
[21] = molecular target: Platelet-derived growth factor receptor beta (Homo sapiens, UniProt P09619); assay: Residual activity of PDGFRbeta at 0.1 uM by microplate scintillation counting
[22] = molecular target: Ribosomal protein S6 kinase alpha-2 (Homo sapiens) (UniProt Q15349); assay: Residual activity of RPS6KA2 at 10 uM by microplate scintillation counting
[23] = molecular target: Proto-oncogene tyrosine-protein kinase ROS (Homo sapiens) (UniProt P08922); assay: Residual activity of ROS at 0.1 uM by microplate scintillation counting

Sequence of Tyrosine-protein kinase Lyn (Homo sapiens) (P07948 2-512 limits assumed): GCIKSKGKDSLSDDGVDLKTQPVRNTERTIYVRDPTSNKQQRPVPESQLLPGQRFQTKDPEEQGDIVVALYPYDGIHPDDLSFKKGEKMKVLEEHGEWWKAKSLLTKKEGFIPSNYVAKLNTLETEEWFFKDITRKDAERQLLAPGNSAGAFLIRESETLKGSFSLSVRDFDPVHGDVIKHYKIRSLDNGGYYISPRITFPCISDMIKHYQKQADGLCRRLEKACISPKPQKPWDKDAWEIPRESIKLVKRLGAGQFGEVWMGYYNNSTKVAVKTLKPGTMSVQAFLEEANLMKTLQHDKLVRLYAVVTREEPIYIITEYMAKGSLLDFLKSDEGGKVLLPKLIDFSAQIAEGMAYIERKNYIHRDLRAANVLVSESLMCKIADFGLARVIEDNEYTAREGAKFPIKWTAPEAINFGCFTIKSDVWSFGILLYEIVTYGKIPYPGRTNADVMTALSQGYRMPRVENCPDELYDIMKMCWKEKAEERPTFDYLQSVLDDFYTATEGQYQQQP
Sequence of Glycogen synthase kinase-3 beta (Homo sapiens) (P49841 whole entry, looked up): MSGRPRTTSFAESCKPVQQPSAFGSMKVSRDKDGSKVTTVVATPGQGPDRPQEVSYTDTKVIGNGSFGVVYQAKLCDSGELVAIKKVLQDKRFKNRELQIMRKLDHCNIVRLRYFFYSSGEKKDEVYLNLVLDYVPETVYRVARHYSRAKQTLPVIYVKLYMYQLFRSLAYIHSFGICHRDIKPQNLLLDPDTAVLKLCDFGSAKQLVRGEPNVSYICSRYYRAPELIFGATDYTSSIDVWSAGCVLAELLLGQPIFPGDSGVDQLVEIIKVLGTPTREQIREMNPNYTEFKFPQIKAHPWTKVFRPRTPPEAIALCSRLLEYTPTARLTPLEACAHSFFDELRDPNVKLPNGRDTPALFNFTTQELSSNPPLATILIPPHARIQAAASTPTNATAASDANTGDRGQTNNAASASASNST
Sequence of Glycogen synthase kinase-3 alpha (Homo sapiens) (P49840 2-483 limits assumed): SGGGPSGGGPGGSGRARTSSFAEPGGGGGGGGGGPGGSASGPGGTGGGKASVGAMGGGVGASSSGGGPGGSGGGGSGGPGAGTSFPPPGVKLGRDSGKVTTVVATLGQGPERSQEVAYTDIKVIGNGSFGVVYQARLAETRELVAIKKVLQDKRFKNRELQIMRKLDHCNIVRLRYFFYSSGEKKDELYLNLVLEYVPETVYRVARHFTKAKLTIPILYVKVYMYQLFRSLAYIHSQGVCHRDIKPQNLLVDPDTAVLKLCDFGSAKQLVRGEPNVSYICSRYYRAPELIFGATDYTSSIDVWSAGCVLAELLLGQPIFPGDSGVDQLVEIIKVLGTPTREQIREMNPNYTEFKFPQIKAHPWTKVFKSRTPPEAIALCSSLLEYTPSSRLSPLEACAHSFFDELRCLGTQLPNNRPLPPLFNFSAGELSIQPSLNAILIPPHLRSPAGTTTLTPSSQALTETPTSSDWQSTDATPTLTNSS
Sequence of Death-associated protein kinase 1 (Homo sapiens) (P53355 whole entry, looked up): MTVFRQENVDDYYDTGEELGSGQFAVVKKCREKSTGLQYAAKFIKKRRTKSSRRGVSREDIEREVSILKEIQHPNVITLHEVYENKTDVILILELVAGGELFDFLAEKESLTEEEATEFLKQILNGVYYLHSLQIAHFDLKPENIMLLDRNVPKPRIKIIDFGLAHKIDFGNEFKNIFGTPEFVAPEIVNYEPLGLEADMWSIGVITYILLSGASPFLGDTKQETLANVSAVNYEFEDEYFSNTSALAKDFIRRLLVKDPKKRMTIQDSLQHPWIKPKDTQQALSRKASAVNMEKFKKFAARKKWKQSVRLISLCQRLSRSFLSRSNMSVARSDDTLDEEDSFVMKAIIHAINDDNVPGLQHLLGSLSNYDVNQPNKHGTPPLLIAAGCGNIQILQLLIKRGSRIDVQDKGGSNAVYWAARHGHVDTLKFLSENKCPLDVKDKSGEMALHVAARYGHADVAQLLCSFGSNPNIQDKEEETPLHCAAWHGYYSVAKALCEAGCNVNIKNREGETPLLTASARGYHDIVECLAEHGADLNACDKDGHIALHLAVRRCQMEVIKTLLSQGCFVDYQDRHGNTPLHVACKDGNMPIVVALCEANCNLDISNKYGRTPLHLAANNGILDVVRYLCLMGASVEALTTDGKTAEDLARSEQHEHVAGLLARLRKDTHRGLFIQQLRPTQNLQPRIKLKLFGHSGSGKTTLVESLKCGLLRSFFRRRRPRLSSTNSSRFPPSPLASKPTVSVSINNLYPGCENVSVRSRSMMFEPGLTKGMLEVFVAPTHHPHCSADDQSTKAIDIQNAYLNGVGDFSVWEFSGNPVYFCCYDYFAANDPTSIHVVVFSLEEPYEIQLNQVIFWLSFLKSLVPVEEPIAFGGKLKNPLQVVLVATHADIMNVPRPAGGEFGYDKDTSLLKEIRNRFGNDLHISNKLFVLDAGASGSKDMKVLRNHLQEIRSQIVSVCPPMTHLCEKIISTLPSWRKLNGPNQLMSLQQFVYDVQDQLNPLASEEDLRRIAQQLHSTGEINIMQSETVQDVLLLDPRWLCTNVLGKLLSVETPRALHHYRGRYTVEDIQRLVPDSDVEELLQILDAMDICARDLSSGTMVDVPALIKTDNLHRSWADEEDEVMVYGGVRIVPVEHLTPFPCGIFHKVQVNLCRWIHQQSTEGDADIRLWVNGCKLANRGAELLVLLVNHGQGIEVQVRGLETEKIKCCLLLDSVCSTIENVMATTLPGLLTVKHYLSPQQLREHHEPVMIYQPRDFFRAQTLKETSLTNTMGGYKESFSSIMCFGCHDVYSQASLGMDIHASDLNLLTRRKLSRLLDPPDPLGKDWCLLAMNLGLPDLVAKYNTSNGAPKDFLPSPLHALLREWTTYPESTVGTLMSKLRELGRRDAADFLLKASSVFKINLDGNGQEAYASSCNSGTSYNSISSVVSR
Sequence of Ephrin type-A receptor 7 (Homo sapiens) (Q15375 28-998 limits assumed): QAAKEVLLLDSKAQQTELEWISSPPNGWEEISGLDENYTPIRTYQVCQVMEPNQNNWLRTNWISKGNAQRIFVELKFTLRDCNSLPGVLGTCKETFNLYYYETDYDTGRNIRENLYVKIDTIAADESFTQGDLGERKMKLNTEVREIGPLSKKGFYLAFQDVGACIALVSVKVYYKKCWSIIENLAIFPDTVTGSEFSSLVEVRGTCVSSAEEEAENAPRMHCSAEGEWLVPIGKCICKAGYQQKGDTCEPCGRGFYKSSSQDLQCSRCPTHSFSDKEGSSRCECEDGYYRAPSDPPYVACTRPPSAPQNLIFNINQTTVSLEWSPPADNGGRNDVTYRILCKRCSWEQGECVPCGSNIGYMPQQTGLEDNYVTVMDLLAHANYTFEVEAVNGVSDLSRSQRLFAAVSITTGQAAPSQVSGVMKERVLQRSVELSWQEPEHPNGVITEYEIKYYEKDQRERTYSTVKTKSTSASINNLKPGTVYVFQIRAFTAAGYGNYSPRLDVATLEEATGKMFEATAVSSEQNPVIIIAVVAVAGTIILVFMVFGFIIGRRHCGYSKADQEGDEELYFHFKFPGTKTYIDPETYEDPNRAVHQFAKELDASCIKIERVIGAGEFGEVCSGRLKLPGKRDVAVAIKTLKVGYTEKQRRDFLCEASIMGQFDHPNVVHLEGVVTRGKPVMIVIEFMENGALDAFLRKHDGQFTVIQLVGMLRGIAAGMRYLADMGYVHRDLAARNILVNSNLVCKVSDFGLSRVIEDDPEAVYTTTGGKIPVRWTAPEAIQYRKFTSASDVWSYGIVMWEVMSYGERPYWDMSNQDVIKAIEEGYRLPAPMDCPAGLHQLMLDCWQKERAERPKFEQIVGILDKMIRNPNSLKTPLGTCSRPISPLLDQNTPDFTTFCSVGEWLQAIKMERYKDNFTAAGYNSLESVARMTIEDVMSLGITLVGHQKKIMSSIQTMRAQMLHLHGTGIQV
Sequence of Serine/threonine-protein kinase PAK 1 (Homo sapiens) (Q13153 whole entry): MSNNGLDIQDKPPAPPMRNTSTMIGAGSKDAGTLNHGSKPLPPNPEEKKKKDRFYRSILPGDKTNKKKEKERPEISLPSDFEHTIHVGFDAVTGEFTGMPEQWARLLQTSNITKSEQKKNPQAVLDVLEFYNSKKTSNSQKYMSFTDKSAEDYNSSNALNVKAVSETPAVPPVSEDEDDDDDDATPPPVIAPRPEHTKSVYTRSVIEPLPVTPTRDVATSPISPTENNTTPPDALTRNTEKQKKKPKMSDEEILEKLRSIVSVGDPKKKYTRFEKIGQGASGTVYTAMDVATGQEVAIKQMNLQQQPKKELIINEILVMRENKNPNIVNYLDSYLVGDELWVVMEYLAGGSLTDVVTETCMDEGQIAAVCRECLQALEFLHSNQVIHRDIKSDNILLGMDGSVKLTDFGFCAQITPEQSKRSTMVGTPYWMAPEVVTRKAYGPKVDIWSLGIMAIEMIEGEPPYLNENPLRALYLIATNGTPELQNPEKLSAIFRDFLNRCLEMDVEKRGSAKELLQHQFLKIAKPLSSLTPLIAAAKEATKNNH
Sequence of Calcium/calmodulin-dependent protein kinase kinase 2 (Homo sapiens) (Q96RR4 2-588 limits assumed): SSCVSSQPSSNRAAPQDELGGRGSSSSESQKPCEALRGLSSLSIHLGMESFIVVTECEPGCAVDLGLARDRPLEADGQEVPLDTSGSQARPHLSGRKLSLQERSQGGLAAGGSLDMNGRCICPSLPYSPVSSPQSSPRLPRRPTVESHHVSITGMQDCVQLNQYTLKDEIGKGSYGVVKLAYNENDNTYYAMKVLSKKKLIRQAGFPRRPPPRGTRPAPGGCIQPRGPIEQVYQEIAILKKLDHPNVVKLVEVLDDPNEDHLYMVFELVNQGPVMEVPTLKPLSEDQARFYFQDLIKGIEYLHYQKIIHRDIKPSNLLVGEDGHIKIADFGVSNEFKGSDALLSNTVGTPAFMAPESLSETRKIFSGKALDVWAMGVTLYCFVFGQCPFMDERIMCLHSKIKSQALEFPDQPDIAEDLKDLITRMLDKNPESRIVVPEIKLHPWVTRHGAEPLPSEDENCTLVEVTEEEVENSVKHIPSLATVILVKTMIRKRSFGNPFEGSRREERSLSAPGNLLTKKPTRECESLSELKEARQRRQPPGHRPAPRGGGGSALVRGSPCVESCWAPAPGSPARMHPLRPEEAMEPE

residual activity [1] [%] | residual activity [2] [%] | residual activity [3] [%] | residual activity [4] [%] | residual activity [5] [%] | residual activity [6] [%] | residual activity [7] [%] | residual activity [8] [%] | residual activity [10] [%] | residual activity [11] [%] | residual activity [12] [%] | residual activity [13] [%] | residual activity [14] [%] | residual activity [15] [%] | residual activity [16] [%] | residual activity [17] [%] | residual activity [18] [%] | residual activity [19] [%] | residual activity [20] [%] | SMILES | residual activity [9] [%] | other results
83 | 116 | 90 | 88 | 98 | 61 | 84 | 101 | 89 | 108 | 70 | 59 | 79 | 87 | 142 | 267 | 163 | 85 | 99 | COc1cc2c(Oc3ccc(-c4nc5ccccc5s4)cc3)ncnc2cc1OCCCN1CCCC1 | 25 | residual activity [21]: 95%; residual activity [22]: 81%; residual activity [23]: 84%
87 | 93 | 84 | 79 | 96 | 77 | 68 | 131 | 103 | 116 | 56 | 33 | 84 | 94 | 112 | 377 | 124 | 91 | 97 | COc1cc2c(Oc3ccc(-c4nc5ccccc5s4)cc3)ncnc2cc1OCCCN1CCN(C)CC1 | 24 | residual activity [21]: 94%; residual activity [22]: 44%; residual activity [23]: 91%
96 | 99 | 88 | 88 | 86 | 84 | 49 | 142 | 101 | 49 | 10 | 29 | 73 | 89 | 36 | 215 | 114 | 90 | 93 | COc1cc2c(Oc3ccc(-c4nc5ccccc5s4)cc3F)ncnc2cc1OCCCN1CCN(C)CC1 | 15 | residual activity [21]: 95%; residual activity [22]: 39%; residual activity [23]: 98%
